Assay results: ChEMBL document CHEMBL1201862, “PubChem BioAssay data set” (2004)
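Cultured in 96-well plates, cells were exposed to test compound for 48 hours across five concentrations. GI50: concentration for 50% inhibition of growth.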 Calls of active or inactive are those of the source. Cut-off read from the data, not from the text of the source: active = GI50 up to about 1.1 µM and inactive = higher.

Experiments:
Test in all cases: DTP human tumour cell line panel, 48 h
UACC-62 = system: UACC-62
OVCAR-5 = system: OVCAR-5
K562 = system: K562
A498 = system: A498
SF-539 = system: SF-539
SR = system: SR
MCF7 = system: MCF7
SK-MEL-2 = system: SK-MEL-2
MDA-MB-231 = system: MDA-MB-231
SN12C = system: SN12C
HT-29 = system: HT-29
HL-60 = system: HL-60
HCC 2998 = system: HCC 2998
EKVX = system: EKVX
HOP-62 = system: HOP-62
SW-620 = system: SW-620
NCI/ADR-RES = system: NCI/ADR-RES
SK-MEL-28 = system: SK-MEL-28
COLO 205 = system: COLO 205
BT-549 = system: BT-549

Compound	GI50 (UACC-62)	GI50 (OVCAR-5)	GI50 (K562)	GI50 (A498)	GI50 (SF-539)	GI50 (SR)	GI50 (MCF7)	GI50 (SK-MEL-2)	GI50 (MDA-MB-231)	GI50 (SN12C)	GI50 (HT-29)	GI50 (HL-60)	GI50 (HCC 2998)	GI50 (EKVX)	GI50 (HOP-62)	GI50 (SW-620)	GI50 (NCI/ADR-RES)	GI50 (SK-MEL-28)	GI50 (COLO 205)	GI50 (BT-549)
O=C(C=P(c1ccccc1)(c1ccccc1)c1ccccc1)c1ccc(-c2cccc([N+](=O)[O-])c2)cc1	4.2 µM (inactive)	3.61 µM (inactive)	3.35 µM (inactive)	3.02 µM (inactive)	4.46 µM (inactive)	3.69 µM (inactive)	3.13 µM (inactive)	1.63 µM (inactive)	2.65 µM (inactive)	3.13 µM (inactive)	1.75 µM (inactive)	2.57 µM (inactive)	1.66 µM (inactive)	2.69 µM (inactive)	5.86 µM (inactive)	3.91 µM (inactive)	3.6 µM (inactive)	4.98 µM (inactive)	1.75 µM (inactive)	
N#CCN(Cc1ccccc1)[C@@H]1CCC[C@]1(O)C#Cc1ccc2c(c1)OCO2	16.1 µM (inactive)	16.1 µM (inactive)	20.3 µM (inactive)	20.3 µM (inactive)	11.7 µM (inactive)	17.8 µM (inactive)	16.9 µM (inactive)	16.4 µM (inactive)	16.9 µM (inactive)		18.2 µM (inactive)	20.6 µM (inactive)	16.3 µM (inactive)	27 µM (inactive)	16.2 µM (inactive)	22.5 µM (inactive)	19.5 µM (inactive)	17.1 µM (inactive)	17.4 µM (inactive)	
Cc1cc(NC(=O)NC(=O)c2ccccc2NC(=O)CN)ccc1Oc1ncc(Br)cn1	0.207 µM (active)	12.3 µM (inactive)	0.419 µM (active)	0.454 µM (active)		1.06 µM (active)	0.259 µM (active)	0.437 µM (active)	0.297 µM (active)	1.16 µM (inactive)	0.299 µM (active)		5.21 µM (inactive)	1.52 µM (inactive)	0.215 µM (active)	0.618 µM (active)	0.13 µM (active)	0.859 µM (active)	0.249 µM (active)	
Cc1ccc([Se](=C(C(=O)c2ccccc2)C(=O)c2ccccc2)c2ccc(C)cc2)cc1	20.7 µM (inactive)	38.8 µM (inactive)	28.8 µM (inactive)	14.8 µM (inactive)	25.6 µM (inactive)	12.7 µM (inactive)	26.7 µM (inactive)	30.8 µM (inactive)	15.8 µM (inactive)	12.8 µM (inactive)	18.7 µM (inactive)	21.3 µM (inactive)			48 µM (inactive)	29.5 µM (inactive)	34.3 µM (inactive)	31 µM (inactive)	17.3 µM (inactive)	
C[C@@H]1[C@@H](c2ccccc2)O[B-](c2ccccc2)(c2ccccc2)N1C	41 µM (inactive)	74.3 µM (inactive)	36.4 µM (inactive)	34.8 µM (inactive)	27.3 µM (inactive)	21.7 µM (inactive)		49.5 µM (inactive)	40.7 µM (inactive)	61.5 µM (inactive)	85.9 µM (inactive)	15.3 µM (inactive)		97.7 µM (inactive)	> 100 µM (inactive)	50.8 µM (inactive)	54.5 µM (inactive)	52.1 µM (inactive)	22.3 µM (inactive)	30.7 µM (inactive)
Cn1ccc(C(=O)N2CCSC2=S)c(OCc2ccccc2)c1=O	> 100 µM (inactive)		> 100 µM (inactive)	> 100 µM (inactive)		26.7 µM (inactive)		> 100 µM (inactive)	> 100 µM (inactive)	> 100 µM (inactive)	> 100 µM (inactive)	54.8 µM (inactive)	> 100 µM (inactive)			> 100 µM (inactive)	> 100 µM (inactive)	> 100 µM (inactive)	> 100 µM (inactive)	> 100 µM (inactive)
Cc1ccc2nc(-c3ccc(N)c(Br)c3)sc2c1	23.8 µM (inactive)	47.3 µM (inactive)	17.4 µM (inactive)	> 100 µM (inactive)	33.1 µM (inactive)	11 µM (inactive)		27.9 µM (inactive)	25.3 µM (inactive)	> 100 µM (inactive)	40.7 µM (inactive)	17.4 µM (inactive)	2.64 µM (inactive)	15.2 µM (inactive)	13.5 µM (inactive)		52.1 µM (inactive)	> 100 µM (inactive)	55.8 µM (inactive)	14.9 µM (inactive)
Cn1c(N)nc2c(nc(OCc3ccccc3)n2C2OC(CO)C(O)C2O)c1=O (stereo unspecified)	> 100 µM (inactive)	> 100 µM (inactive)	> 100 µM (inactive)	> 100 µM (inactive)		> 100 µM (inactive)	> 100 µM (inactive)	> 100 µM (inactive)	> 100 µM (inactive)	> 100 µM (inactive)	> 100 µM (inactive)	> 100 µM (inactive)		> 100 µM (inactive)	> 100 µM (inactive)	> 100 µM (inactive)		> 100 µM (inactive)	> 100 µM (inactive)	
N#C/C(=C\c1cc(Br)c(O)c(Br)c1)c1cccnc1	43.8 µM (inactive)	41.6 µM (inactive)	23.6 µM (inactive)		26.2 µM (inactive)	31.3 µM (inactive)	33 µM (inactive)	19.3 µM (inactive)		34.7 µM (inactive)	34.9 µM (inactive)	27 µM (inactive)	36.1 µM (inactive)	19.1 µM (inactive)	32.8 µM (inactive)	28.8 µM (inactive)	24 µM (inactive)	27.6 µM (inactive)	22.8 µM (inactive)	22.5 µM (inactive)
O=c1ccn2n1Cc1ccccc1C2	> 100 µM (inactive)	> 100 µM (inactive)	> 100 µM (inactive)	> 100 µM (inactive)	> 100 µM (inactive)	> 100 µM (inactive)		> 100 µM (inactive)	> 100 µM (inactive)	> 100 µM (inactive)	> 100 µM (inactive)	> 100 µM (inactive)	> 100 µM (inactive)	> 100 µM (inactive)	> 100 µM (inactive)	> 100 µM (inactive)	> 100 µM (inactive)	> 100 µM (inactive)	> 100 µM (inactive)	
c1cncc(C(Nc2cccc3cccnc23)Nc2cccc3cccnc23)c1	> 100 µM (inactive)	> 100 µM (inactive)	> 100 µM (inactive)		> 100 µM (inactive)		> 100 µM (inactive)	> 100 µM (inactive)	> 100 µM (inactive)	> 100 µM (inactive)	> 100 µM (inactive)	36.3 µM (inactive)	> 100 µM (inactive)	69.7 µM (inactive)	> 100 µM (inactive)	> 100 µM (inactive)	> 100 µM (inactive)		> 100 µM (inactive)	> 100 µM (inactive)
Oc1ccc[n+](Cc2ccccc2)c1	> 100 µM (inactive)	> 100 µM (inactive)	> 100 µM (inactive)	> 100 µM (inactive)	> 100 µM (inactive)		> 100 µM (inactive)	> 100 µM (inactive)	> 100 µM (inactive)	> 100 µM (inactive)	> 100 µM (inactive)	> 100 µM (inactive)	> 100 µM (inactive)		> 100 µM (inactive)		> 100 µM (inactive)	> 100 µM (inactive)	> 100 µM (inactive)	
C/N=C/N(C)c1c2ccccc2nc2ccccc12	> 100 µM (inactive)	> 100 µM (inactive)	> 100 µM (inactive)	> 100 µM (inactive)	> 100 µM (inactive)	> 100 µM (inactive)	> 100 µM (inactive)	> 100 µM (inactive)	> 100 µM (inactive)	> 100 µM (inactive)	> 100 µM (inactive)	> 100 µM (inactive)	> 100 µM (inactive)	> 100 µM (inactive)	> 100 µM (inactive)	> 100 µM (inactive)	> 100 µM (inactive)	> 100 µM (inactive)	> 100 µM (inactive)	
CCOC(=O)c1sc2nc(SC)nc3c2c1NCN3C1CC1	> 100 µM (inactive)	> 100 µM (inactive)		> 100 µM (inactive)				> 100 µM (inactive)	> 100 µM (inactive)	> 100 µM (inactive)	> 100 µM (inactive)		> 100 µM (inactive)		> 100 µM (inactive)		> 100 µM (inactive)	> 100 µM (inactive)	> 100 µM (inactive)	> 100 µM (inactive)
O=C(CC(=O)Nc1cccc(Cl)c1)NNCC(=O)Nc1nnc(-c2ccccc2)s1	62.4 µM (inactive)	> 100 µM (inactive)	27.4 µM (inactive)	20.8 µM (inactive)	> 100 µM (inactive)	41.2 µM (inactive)		> 100 µM (inactive)		> 100 µM (inactive)	80 µM (inactive)	25.7 µM (inactive)	> 100 µM (inactive)	57.3 µM (inactive)	21.9 µM (inactive)	39.4 µM (inactive)		> 100 µM (inactive)	> 100 µM (inactive)	
Clc1ccc(-n2nnc(C3=NCCCN3)c2-c2ccccc2)cc1	> 100 µM (inactive)	> 100 µM (inactive)	> 100 µM (inactive)	> 100 µM (inactive)	> 100 µM (inactive)	> 100 µM (inactive)		> 100 µM (inactive)		> 100 µM (inactive)	> 100 µM (inactive)	> 100 µM (inactive)	> 100 µM (inactive)	> 100 µM (inactive)	> 100 µM (inactive)	> 100 µM (inactive)		> 100 µM (inactive)	67.3 µM (inactive)	
